Columns and labels:
Format in all cases: binding
CCR8 = biological target: T1, CCR8 (Homo sapiens, UniProt P51685); experiment: NanoBRET screen HiBiT-CCR8 in HEK293
T1 construct: purchased Promega (in-house HiBiT-GPCR construct library, NanoBRET)
Method: (§1) Each tracer candidate was screened across the entire library of HiBiT-GPCR constructs using NanoBRET as the detection modality. As depicted in Figure 4A, the specificity of interactions was evaluated through decrease in BRET due to competitive displacement of a bound tracer by excess parental compound. Each tracer was analyzed for binding to each HiBiT-GPCR fusion in the absence and in the presence of competing parental compound. Briefly, HEK293 cells were transfected with HiBiT-GPCR constructs diluted into promoterless DNA to reduce expression and maximize translocation to the cell surface. Each tracer candidate was then screened at concentrations of 1 μM and 0.1 μM across cells expressing these fusions. Cells were treated for 1.5 h with tracer either alone or in the presence of 20 μM competing parental compound (i.e., control). BRET was measured upon addition of purified LgBiT and subsequent complementation with HiBiT genetically fused to a GPCR. The specificity of interactions was assessed through a decrease in BRET signal due to competitive displacement of the bound tracer. To further gauge the robustness of these interactions, the fold response over the control (i.e., BRETtracer/BRETcontrol) was calculated. We chose a 1.5-fold response, which translates to ≥7-fold signal over noise as the minimal threshold required to score an interaction as positive. […]. Below we highlight the screening results obtained for our exemplary fluorescent tracers based on Clozapine, Amitriptyline and AZD1283.
(§2) HiBiT-GPCR DNA constructs were diluted in 10 mM Tris pH 8 to a final concentration of 0.01 μg/μL, arrayed in 96-well plates and stored at −20 °C. For transfection, HEK293 cells were suspended in Opti-MEM (without phenol red) supplemented with 2% fetal bovine serum (Seradigm) and 100 units/mL penicillin–streptomycin (Gibco) at a final concentration of 220,000 cells/mL and dispensed into white 96-well plates at 90 μL/well. Subsequent transfections and screens were carried using an Agilent Bravo Automated Liquid Handling Platform. First, the 96-well HiBiT DNA arrays were diluted 25-fold in Opti-MEM (without serum or phenol red) to a final concentration of 0.0004 μg/μL and 20 μL of the diluted DNAs were transferred into new 96-well plates. Next, promoterless carrier DNA (1 μg/μL) was diluted 25-fold (0.04 μg/μL) and then dispensed into the diluted arrays at 20 μL/well. Following brief mixing, Viafect transfection reagent (Promega) diluted 16-fold into Opti-MEM was dispensed into the plates at 40 μL/well. After mixing by pipetting, plates were incubated for 10 min on the pipetting station deck. The DNA-transfection reagent complexes were then added to plates containing cells. To facilitate the screen, 10 μL of DNA-transfection reagent complexes were added in duplicates to the top 4 and bottom 4 rows, resulting in two identical 48-well arrays per plate. Plates with transfected cells were incubated for 18–20 h at 37 °C/5% CO2. A screen of each tracer across the entire library using two different concentrations requires duplicate plates of transfected cells. Depending on the number of tracers being screened, transfections can be scaled up using the same ratios. The next day, for each tracer, four 20× screening solutions in tracer dilution buffer (Promega) were prepared: two duplicates at final concentration of 20 μM and two duplicates at a final concentration of 2 μM. A competing unmodified compound was added to one of each duplicate at a final concentration of 400 μM. The four resulting solutions were diluted 4-fold in Opti-MEM without serum or phenol red to generate 5× solutions (5 µM and 0.5 µM tracer +/− 100 μM competing compound). To screen the library, a BioTek MultiFlo FX liquid dispenser was used to dispense 22.5 µL of tracer solution to the top 4 rows and 22.5 µL tracer + competing compound solution to the 4 bottom rows. Plates were briefly mixed on an orbital shaker and incubated for 1.5 h at room temperature. […]

C3AR1 = biological target: T2, C3AR1 (Homo sapiens, UniProt Q16581); experiment: NanoBRET screen HiBiT-C3AR1 in HEK293
T2 construct: purchased Promega (in-house HiBiT-GPCR construct library, NanoBRET)
T2 sequence (Q16581 1-482): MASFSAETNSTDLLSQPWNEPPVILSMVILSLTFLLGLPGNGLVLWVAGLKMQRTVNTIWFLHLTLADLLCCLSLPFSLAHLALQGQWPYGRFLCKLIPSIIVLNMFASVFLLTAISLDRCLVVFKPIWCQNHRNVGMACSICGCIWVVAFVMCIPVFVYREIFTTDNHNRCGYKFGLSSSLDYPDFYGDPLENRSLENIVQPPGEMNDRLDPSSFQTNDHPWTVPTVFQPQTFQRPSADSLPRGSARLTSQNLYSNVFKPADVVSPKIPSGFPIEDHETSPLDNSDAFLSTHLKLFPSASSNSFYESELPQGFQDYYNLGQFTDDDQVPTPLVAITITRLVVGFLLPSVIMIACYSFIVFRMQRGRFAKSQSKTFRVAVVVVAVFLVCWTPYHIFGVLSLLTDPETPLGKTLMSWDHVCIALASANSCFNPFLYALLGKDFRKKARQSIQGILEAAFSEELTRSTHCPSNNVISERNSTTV
Method: as §1, §2

P2RY11 = biological target: T3, P2RY11 (Homo sapiens, UniProt Q96G91); experiment: NanoBRET screen HiBiT-P2RY11 in HEK293
T3 construct: purchased Promega (in-house HiBiT-GPCR construct library, NanoBRET)
T3 sequence (Q96G91 1-374): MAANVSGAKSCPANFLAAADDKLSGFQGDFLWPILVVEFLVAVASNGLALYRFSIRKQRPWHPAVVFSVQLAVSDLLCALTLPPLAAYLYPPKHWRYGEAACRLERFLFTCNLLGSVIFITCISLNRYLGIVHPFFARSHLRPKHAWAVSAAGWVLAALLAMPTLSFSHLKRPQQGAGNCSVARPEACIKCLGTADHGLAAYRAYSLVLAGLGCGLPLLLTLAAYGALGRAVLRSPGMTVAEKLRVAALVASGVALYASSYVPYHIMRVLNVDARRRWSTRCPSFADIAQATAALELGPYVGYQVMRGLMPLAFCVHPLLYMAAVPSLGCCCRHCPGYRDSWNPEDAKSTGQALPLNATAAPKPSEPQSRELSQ
Method: as §1, §2

NPBWR1 = biological target: T4, NPBWR1 (Homo sapiens, UniProt P48145); experiment: NanoBRET screen HiBiT-NPBWR1 in HEK293; settings: NPBWR1
T4 construct: purchased Promega (in-house HiBiT-GPCR construct library, NanoBRET)
T4 sequence (P48145 1-328): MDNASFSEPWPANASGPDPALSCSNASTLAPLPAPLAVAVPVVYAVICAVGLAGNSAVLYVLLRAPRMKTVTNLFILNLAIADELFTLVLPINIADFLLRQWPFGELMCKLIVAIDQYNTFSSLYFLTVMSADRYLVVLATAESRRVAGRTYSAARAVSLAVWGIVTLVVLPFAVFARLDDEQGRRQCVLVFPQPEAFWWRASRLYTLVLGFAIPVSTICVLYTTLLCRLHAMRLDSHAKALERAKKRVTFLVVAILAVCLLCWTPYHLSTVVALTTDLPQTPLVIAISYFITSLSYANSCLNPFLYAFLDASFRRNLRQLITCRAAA
Method: as §1, §2

GRM1 = biological target: T5, GRM1 (Homo sapiens, UniProt Q13255); experiment: NanoBRET screen HiBiT-GRM1 in HEK293; settings: GRM1
T5 construct: purchased Promega (in-house HiBiT-GPCR construct library, NanoBRET)
Method: as §1, §2

T1 sequence (P51685 whole entry): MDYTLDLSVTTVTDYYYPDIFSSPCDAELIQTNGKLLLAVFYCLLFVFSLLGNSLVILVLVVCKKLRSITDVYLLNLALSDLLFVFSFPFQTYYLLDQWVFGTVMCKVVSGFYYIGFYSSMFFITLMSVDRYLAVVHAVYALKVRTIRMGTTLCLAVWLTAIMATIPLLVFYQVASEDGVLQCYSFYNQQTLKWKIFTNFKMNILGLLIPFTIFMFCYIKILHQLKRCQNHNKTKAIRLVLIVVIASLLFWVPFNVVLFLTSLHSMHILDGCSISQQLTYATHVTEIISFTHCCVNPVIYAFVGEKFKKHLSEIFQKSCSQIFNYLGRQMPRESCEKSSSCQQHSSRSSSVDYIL
T5 sequence (Q13255 19-1194): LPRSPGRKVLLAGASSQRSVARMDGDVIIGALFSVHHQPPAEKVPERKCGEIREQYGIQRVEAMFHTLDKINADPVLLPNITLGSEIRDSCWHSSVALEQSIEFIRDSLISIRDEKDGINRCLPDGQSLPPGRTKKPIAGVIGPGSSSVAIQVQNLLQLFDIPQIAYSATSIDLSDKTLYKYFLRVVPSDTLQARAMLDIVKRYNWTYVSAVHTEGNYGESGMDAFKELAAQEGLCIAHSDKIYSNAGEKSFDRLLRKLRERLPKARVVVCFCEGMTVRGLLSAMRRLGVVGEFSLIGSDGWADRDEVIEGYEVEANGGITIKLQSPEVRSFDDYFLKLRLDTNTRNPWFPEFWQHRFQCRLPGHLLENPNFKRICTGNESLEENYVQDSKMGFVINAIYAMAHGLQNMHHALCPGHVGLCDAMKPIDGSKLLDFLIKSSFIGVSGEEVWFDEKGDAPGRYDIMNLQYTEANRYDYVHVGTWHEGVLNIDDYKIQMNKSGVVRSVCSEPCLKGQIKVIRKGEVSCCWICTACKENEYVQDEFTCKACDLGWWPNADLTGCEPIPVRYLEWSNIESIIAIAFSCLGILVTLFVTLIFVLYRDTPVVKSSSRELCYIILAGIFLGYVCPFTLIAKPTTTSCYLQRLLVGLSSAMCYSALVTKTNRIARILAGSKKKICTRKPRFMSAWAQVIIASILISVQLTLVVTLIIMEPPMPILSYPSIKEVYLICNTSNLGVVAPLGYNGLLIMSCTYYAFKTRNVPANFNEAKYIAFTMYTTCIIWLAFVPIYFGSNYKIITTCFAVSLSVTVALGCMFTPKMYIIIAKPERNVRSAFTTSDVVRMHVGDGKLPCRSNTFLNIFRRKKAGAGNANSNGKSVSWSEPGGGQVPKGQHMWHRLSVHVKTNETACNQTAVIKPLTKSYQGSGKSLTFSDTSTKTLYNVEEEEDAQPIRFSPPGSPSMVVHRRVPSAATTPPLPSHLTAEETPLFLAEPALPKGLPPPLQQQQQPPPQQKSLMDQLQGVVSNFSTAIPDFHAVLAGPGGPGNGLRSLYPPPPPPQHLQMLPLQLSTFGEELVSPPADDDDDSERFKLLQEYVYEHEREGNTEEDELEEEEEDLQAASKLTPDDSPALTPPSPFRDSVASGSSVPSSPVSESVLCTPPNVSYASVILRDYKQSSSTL

SMILES | NanoBRET Fold Response (CCR8; CCR8, tracer 0.1μM) | NanoBRET Fold Response (CCR8; CCR8, tracer 1μM) | NanoBRET Fold Response (C3AR1; C3AR1, tracer 0.1μM) | NanoBRET Fold Response (C3AR1; C3AR1, tracer 1μM) | NanoBRET Fold Response (P2RY11; P2RY11, tracer 0.1μM) | NanoBRET Fold Response (P2RY11; P2RY11, tracer 1μM) | NanoBRET Fold Response (NPBWR1; tracer 0.1μM) | NanoBRET Fold Response (NPBWR1; tracer 1μM) | NanoBRET Fold Response (GRM1; tracer 0.1μM) | NanoBRET Fold Response (GRM1; tracer 1μM) | further results
O=C(CCOCCOCCOCCOCCNC(=O)CCc1ccc2n1[B-](F)(F)[N+]1=C(c3ccc[nH]3)C=CC1=C2)NCCCN1CCN(C2=Nc3ccccc3Oc3ccc(Cl)cc32)CC1 [Loxapine-a-2-NB590] | 1.02 | 1.10 | 0.97 | 1.08 | 1.02 | 0.94 | 1.02 | 0.93 | 0.93 | 0.59 | 
CCCn1c(=O)c2[nH]c(-c3ccc(OCC(=O)NCCNC(=O)CCOCCNC(=O)c4ccc(CNC(=O)CCc5ccc6n5[B-](F)(F)[N+]5=C(c7ccc[nH]7)C=CC5=C6)cc4)cc3)nc2n(CCC)c1=O [XAC-3-NB590] | 0.90 | 0.93 | 1.15 | 0.96 | 1.21 | 1.25 | 1.03 | 0.96 | 0.63 | 0.80 | 
CN(C)CCC=C1c2ccccc2CCc2ccc(C(=O)NCCNC(=O)CCOCCOCCOCCOCCNC(=O)CCc3ccc4n3[B-](F)(F)[N+]3=C(c5ccc[nH]5)C=CC3=C4)cc21 [Amitriptyline-a-2-NB590] |  |  |  |  |  |  |  |  |  |  | NanoBRET Fold Response (CCR8; tracer at 0.1μM): 0.94; NanoBRET Fold Response (CCR8; tracer at 1μM): 0.97; NanoBRET Fold Response (C3AR1; tracer at 0.1μM): 0.99; NanoBRET Fold Response (C3AR1; tracer at 1μM): 1.01; NanoBRET Fold Response (P2RY11; tracer at 0.1μM): 1.13; NanoBRET Fold Response (P2RY11; tracer at 1μM): 1.07
COc1ccccc1N1CCN(CCCCN2C(=O)c3ccc(CNC(=O)CCOCCOCCOCCOCCNC(=O)CCc4ccc5n4[B-](F)(F)[N+]4=C(c6ccc[nH]6)C=CC4=C5)cc3C2=O)CC1 [NAN-190-2-NB590] | 0.92 | 0.92 | 1.03 | 0.96 | 1.09 | 0.99 | 1.02 |  | 0.35 | 0.92 | 
O=C(CCc1ccc2n1[B-](F)(F)[N+]1=C(c3ccc[nH]3)C=CC1=C2)NCc1ccc(C(=O)NCCOCCOCCNCC(O)COc2cccc3ccccc23)cc1 (centres unmarked) [Propranolol-3-NB590] |  |  |  |  |  |  |  |  |  |  | NanoBRET Fold Response (CCR8; CCR8, 0.1μM): 1.00; NanoBRET Fold Response (CCR8; CCR8, 1μM): 0.93; NanoBRET Fold Response (C3AR1; C3AR1, 0.1μM): 1.05; NanoBRET Fold Response (C3AR1; C3AR1, 1μM): 1.07; NanoBRET Fold Response (P2RY11; P2RY11, 0.1μM): 1.03; NanoBRET Fold Response (P2RY11; P2RY11, 1μM): 0.96; NanoBRET Fold Response (NPBWR1; 0.1μM): 1.03; NanoBRET Fold Response (NPBWR1; 1μM): 0.96; NanoBRET Fold Response (GRM1; 0.1μM): 0.72; NanoBRET Fold Response (GRM1; 1μM): 0.69
COc1ccccc1N1CCN(CCCCN2C(=O)c3ccc(CNC(=O)CCOCCNC(=O)c4ccc(CNC(=O)CCc5ccc6n5[B-](F)(F)[N+]5=C(c7ccc[nH]7)C=CC5=C6)cc4)cc3C2=O)CC1 [NAN-190-3-NB590] | 0.67 | 1.01 | 0.90 | 0.93 | 1.05 | 0.96 | 0.92 | 0.91 | 1.03 | 1.12 | 
O=C(CCc1ccc2n1[B-](F)(F)[N+]1=C(c3ccc[nH]3)C=CC1=C2)NCc1ccc(C(=O)NCCOCCC(=O)N[C@@H]2CC[C@@]3(O)[C@H]4Cc5ccc(O)c6c5[C@@]3(CCN4CC3CC3)[C@H]2O6)cc1 [Naltrexone-3-NB590] | 1.14 | 1.02 | 0.99 | 1.02 | 1.26 | 0.71 | 0.92 | 1.19 | 0.93 | 0.75 | 
CN(CCC=C1c2ccccc2CCc2ccccc21)C(=O)CCOCCOCCOCCOCCNC(=O)CCc1ccc2n1[B-](F)(F)[N+]1=C(c3ccc[nH]3)C=CC1=C2 [Amitriptyline-e-2-NB590] |  |  |  |  |  |  |  |  |  |  | NanoBRET Fold Response (CCR8; tracer at 1μM): 0.79; NanoBRET Fold Response (C3AR1; tracer at 1μM): 1.02; NanoBRET Fold Response (P2RY11; tracer at 1μM): 1.13
